Assay in all cases: Fluorescence polarization SH3 domain-PRP binding
Conditions in all cases: FP, 0.2 µM fluorescein-labeled peptide, SH3 domain 0-200 µM, Tris/HCl pH 7.5, 25 °C, quadratic fit
In general terms: Polarisation of emitted light reports the rotation of a fluorescent probe.

The target in test [1] is T1, ITSN1-4 SH3 domain (aa 1070-1138) (Homo sapiens, UniProt Q15811).
T1 construct: 1070-1138; GST (N); made in house; host or cells: Escherichia coli CodonPlus, Rosetta, BL21(DE3)
T1 sequence (Q15811 1070-1138): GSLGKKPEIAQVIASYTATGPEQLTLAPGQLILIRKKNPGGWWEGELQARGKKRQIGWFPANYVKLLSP
The procedure, abridged:
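Fluorescein-labeled proline-rich peptides (0.2 µM) were titrated with GST-fused SH3 domains (0–200 µM) in 30 mM Tris/HCl pH 7.5, 5 mM MgCl2, 3 mM DTT at 25 °C. Polarization was read at 470 nm excitation/560 nm emission; Kd came from quadratic ligand-binding fits.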

In test [2] the target is T2, CRK-1 SH3 domain (aa 132-192) (Homo sapiens, UniProt P46108).
T2 construct: 132-192; GST (N); made in house; host or cells: Escherichia coli CodonPlus, Rosetta, BL21(DE3)
The method, then:
(§1) The interaction between fluorescein-labeled proline-rich peptides (0.2 µM) and increasing concentrations of SH3 domains (ranging from 0 to 200 µM) was measured in a buffer (containing 30 mM Tris/HCl (pH 7.5), 5 mM MgCl2, and 3 mM DTT at 25 °C) in a total volume of 200 µL using a Fluoromax 4 fluorimeter in polarization mode and a quartz glass fluorescence cuvette (Hellma Ultra-Micro Cuvette 105.250-QS, Thermo Fisher Scientific, Waltham, MA USA). Excitation was performed at 470 nm and emission was measured at 560 nm. Dissociation constants (Kd) were determined by fitting the concentration-dependent binding curve to a quadratic ligand binding equation.
(§2) Fluorescence polarization measurements were performed to determine the binding affinities of SH3 domain–PRP interaction pairs from the dot blot analysis. SH3 proteins were titrated at increasing concentrations against fluorescent PRPs, which were kept at a constant concentration of 0.2 µM. GRB2-2^W193K, which is defective in the binding of PRPs such as RP1, was used as a negative control as previously described. […] The resulting data (Figure S6) allowed the evaluation of equilibrium dissociation constants (Kd) for 45 interactions between the SH3 domains and the PRPs (Figure 2B; Table S6).
(§3) Figure S6. Interactions of the SH3 domains with fluorescent PRPs measured by fluorescence polarization.
(§4) Fluorescent peptides (0.2 µM) were titrated with increasing concentrations of the corresponding SH3 domains.
(§5) GRB2-2W193K, defective in the binding of PRPs such as RP1, was used as a negative control as previously described. The x-axis represents SH3 domain concentrations as GST fusion proteins in µM, while the y-axis represents fluorescence polarization. The equilibrium dissociation constants (Kd) for the respective measurements were determined by fitting the titration curves to a quadratic ligand-binding equation (solid lines). All Kd values are […]
(§6) Error bars are derived from the fitting errors.
(§7) (1 picture or pasted object on this page, not shown here)

Test [3] has as its target T3, ARHGAP12 SH3 domain (aa 12-74) (Homo sapiens, UniProt Q8IWW6).
T3 construct: 12-74; GST (N); made in house; host or cells: Escherichia coli CodonPlus, Rosetta, BL21(DE3)
T3 sequence (Q8IWW6 12-74): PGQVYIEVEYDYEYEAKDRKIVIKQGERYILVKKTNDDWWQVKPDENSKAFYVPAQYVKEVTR
The method, then: as §1, §2, §3, §4, §5, §6, §7

Test [4] has as its target T4, ITSN1-3 SH3 domain (aa 1002-1060) (Homo sapiens, UniProt Q15811).
T4 construct: 1002-1060; GST (N); made in house; host or cells: Escherichia coli CodonPlus, Rosetta, BL21(DE3)
T4 sequence (Q15811 1002-1060): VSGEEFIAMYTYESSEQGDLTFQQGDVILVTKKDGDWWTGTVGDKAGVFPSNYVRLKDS
The method, then:
as §1, §2, §3, §4, §5, §6, §7

Test [5] has as its target T5, DLG2 SH3 domain (aa 536-606) (Homo sapiens, UniProt Q15700).
T5 construct: 536-606; GST (N); made in house; host or cells: Escherichia coli CodonPlus, Rosetta, BL21(DE3)
T5 sequence (Q15700 536-606): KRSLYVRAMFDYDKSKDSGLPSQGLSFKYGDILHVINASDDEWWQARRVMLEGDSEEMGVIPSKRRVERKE
The method, then:
as §1, §2, §3, §4, §5, §6, §7

In test [6] the target is T6, ITSN1-2 SH3 domain (aa 913-971) (Homo sapiens, UniProt Q15811).
T6 construct: 913-971; GST (N); made in house; host or cells: Escherichia coli CodonPlus, Rosetta, BL21(DE3)
T6 sequence (Q15811 913-971): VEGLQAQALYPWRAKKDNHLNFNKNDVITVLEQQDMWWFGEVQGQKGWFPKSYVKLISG
On the procedure: as §1, §2, §3, §4, §5, §6, §7

For test [7], the target named is T7, ABI1 SH3 domain (aa 446-505) (Homo sapiens, UniProt Q8IZP0).
T7 construct: 446-505; GST (N); made in house; host or cells: Escherichia coli CodonPlus, Rosetta, BL21(DE3)
The method, then:
as §1, §2, §3, §4, §5, §6, §7

Test [8] deals with T8, GRB2-1 SH3 domain (aa 1-58) (Homo sapiens, UniProt P62993).
T8 construct: 1-58; GST (N); made in house; host or cells: Escherichia coli CodonPlus, Rosetta, BL21(DE3)
The method, then: as §1, §2, §3, §4, §5, §6, §7

Test [9] concerns the target T9, BIN1 SH3 domain (aa 520-593) (Homo sapiens, UniProt O00499).
T9 construct: 520-593; GST (N); made in house; host or cells: Escherichia coli CodonPlus, Rosetta, BL21(DE3)
T9 sequence (O00499 520-593): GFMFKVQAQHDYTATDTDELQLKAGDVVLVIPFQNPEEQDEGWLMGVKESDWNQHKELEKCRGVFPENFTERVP
The method, then: as §1, §2, §3, §4, §5, §6, §7

Test [10] deals with T10, ITSN1-1 SH3 domain (aa 740-806) (Homo sapiens, UniProt Q15811).
T10 construct: 740-806; GST (N); made in house; host or cells: Escherichia coli CodonPlus, Rosetta, BL21(DE3)
T10 sequence (Q15811 740-806): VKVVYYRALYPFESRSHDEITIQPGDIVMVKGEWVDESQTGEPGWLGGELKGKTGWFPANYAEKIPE
The method, then: as §1, §2, §3, §4, §5, §6, §7

Test [11] addresses T11, ARHGEF30 (OBSCN) SH3 domain (aa 5600-5667) (Homo sapiens, UniProt Q5VST9).
T11 construct: 5600-5667; GST (N); made in house; host or cells: Escherichia coli CodonPlus, Rosetta, BL21(DE3)
T11 sequence (Q5VST9 5600-5667): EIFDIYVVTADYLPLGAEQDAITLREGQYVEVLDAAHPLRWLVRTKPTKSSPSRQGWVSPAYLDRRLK
The method, then:
as §1, §2, §3, §4, §5, §6, §7

For test [12], the target named is T12, GRB2-2 SH3 domain (aa 158-215) (Homo sapiens, UniProt P62993).
T12 construct: 158-215; GST (N); made in house; host or cells: Escherichia coli CodonPlus, Rosetta, BL21(DE3)
The method, then: as §1, §2, §3, §4, §5, §6, §7

Peptide text beside a SMILES is read from it. Bounds are passed on as bounds.

T8 sequence (P62993 1-58): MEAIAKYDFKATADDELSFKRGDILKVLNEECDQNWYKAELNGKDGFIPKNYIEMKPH
T2 sequence (P46108 132-192): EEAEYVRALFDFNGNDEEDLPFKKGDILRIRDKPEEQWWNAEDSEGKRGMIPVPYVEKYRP
T7 sequence (Q8IZP0 446-505): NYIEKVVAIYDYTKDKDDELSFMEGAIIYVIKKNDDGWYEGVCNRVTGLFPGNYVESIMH
T12 sequence (P62993 158-215): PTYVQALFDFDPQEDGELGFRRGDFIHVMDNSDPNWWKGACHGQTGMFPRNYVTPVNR

In the case of `CC[C@H](C)[C@H](N)C(=O)N[C@@H](CO)C(=O)N[C@@H](CC(=O)O)C(=O)N1CCC[C@H]1C(=O)N1CCC[C@H]1C(=O)N[C@@H](CCC(=O)O)C(=O)N[C@@H](CO)C(=O)N1CCC[C@H]1C(=O)N1CCC[C@H]1C(=O)N[C@@H](CC(C)C)C(=O)N[C@@H](CC(C)C)C(=O)N1CCC[C@H]1C(=O)N1CCC[C@H]1C(=O)N[C@@H](CCCNC(=N)N)C(=O)N[C@@H](CCC(=O)O)C(=O)N1CCC[C@H]1C(=O)N[C@H](C(=O)N[C@@H](CCCNC(=N)N)C(=O)N[C@H](C(=O)N1CCC[C@H]1C(=O)N[C@@H](CC(=O)O)C(=O)N[C@H](C(=O)O)C(C)C)[C@@H](C)O)C(C)C` [Peptide P5] (H-ISDPPESPPLLPPREPVRTPDV-OH), the Kd in test [1], in test [2], in test [3], in test [4], in test [5] and in test [6] was over 200 µM each time. Further, the dissociation constant (Kd) (in general, the free concentration of one partner at which half of the binding sites on the other are occupied at equilibrium, for simple one-to-one binding) in test [7] is over 200 µM; in test [8] it was 62 µM; in test [9], over 200 µM; in [10], over 200 µM; in test [11], over 200 µM; in test [12], 35 µM.

Turning to `CC(C)C[C@H](NC(=O)[C@@H]1CCCN1C(=O)[C@@H]1CCCN1C(=O)[C@H](CO)NC(=O)[C@@H]1CCCN1C(=O)[C@H](CC(C)C)NC(=O)[C@H](Cc1c[nH]cn1)NC(=O)[C@@H](N)CCCNC(=N)N)C(=O)N[C@H](C(=O)N[C@@H](CCC(N)=O)C(=O)O)[C@@H](C)O` [Peptide P8] (H-RHLPSPPLTQ-OH; N-terminus and C-terminus assumed), the dissociation constant Kd in test [1], in test [2], in test [3], in [4], in test [5] and in test [6] was over 200 µM throughout. The Kd in [7], in test [8], in [9], in test [10], in [11] and in test [12] was over 200 µM throughout.

On to `CC[C@H](C)[C@H](NC(=O)[C@H](C)NC(=O)[C@@H]1CCCN1C(=O)[C@@H]1CCCN1C(=O)[C@H](CO)NC(=O)[C@H](CC(=O)O)NC(=O)[C@@H](N)CC(C)C)C(=O)N1CCC[C@H]1C(=O)N1CCC[C@H]1C(=O)N[C@@H](CCCNC(=N)N)C(=O)N[C@@H](CCC(N)=O)C(=O)N1CCC[C@H]1C(=O)N[C@H](C(=O)N[C@@H](CO)C(=O)N[C@@H](CCCCN)C(=O)O)[C@@H](C)O` [Peptide P4] (H-LDSPPAIPPRQPTSK-OH), for which the Kd in [1], in test [2], in [3], in test [4], in test [5] and in test [6] was over 200 µM throughout. Also, the dissociation constant Kd in [7] was 24.6 µM; in test [8], 60 µM; in test [9] it was over 200 µM; in [10], 6.6 µM; in [11] it was over 200 µM; in test [12], 20 µM.

The record behind these values is PMC10814857, “Functional Classification and Interaction Selectivity Landscape of the Human SH3 Domain Superfamily” (Cells, 2024).
